Measured values from US12527774B2, “Estrogen-related receptor alpha modulators” (LEAD PHARMA HOLDING B.V., priority 2019, dated 2026).

Key:
[1] = target: ERRα ligand binding domain (ERRα-LBD) (Homo sapiens (Human), UniProt P11474); test: ERRα AlphaScreen Assay; assay type: biochemical; details: disruption of binding of ERRα-LBD protein to biotin-PGC1α-3 co-activator peptide; for IC50: read-out: mean pIC50 (converted)
How it was run: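 Disruption of co-activator binding read by AlphaScreen: compounds in triplicate, 1% DMSO, Tris pH 7.5 buffer, room temperature. Bacterially expressed 6His-SUMO-ERRα-LBD at 0.81 nM with beads for 1 h, then 15 nM biotinylated PGC1α peptide for 2 h. IC50 from four-parameter fits, averaged as pIC50.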

[2] = target: full length ERRα (Homo sapiens (Human), UniProt P11474); test: Full Length ERRα Reporter Gene Assay; assay type: cell-based; details: SK-BR-3 cells, ERRα-RE luciferase reporter, overnight incubation; read-out: mean pIC50 (converted)
full length ERRα, sequence (P11474 whole entry): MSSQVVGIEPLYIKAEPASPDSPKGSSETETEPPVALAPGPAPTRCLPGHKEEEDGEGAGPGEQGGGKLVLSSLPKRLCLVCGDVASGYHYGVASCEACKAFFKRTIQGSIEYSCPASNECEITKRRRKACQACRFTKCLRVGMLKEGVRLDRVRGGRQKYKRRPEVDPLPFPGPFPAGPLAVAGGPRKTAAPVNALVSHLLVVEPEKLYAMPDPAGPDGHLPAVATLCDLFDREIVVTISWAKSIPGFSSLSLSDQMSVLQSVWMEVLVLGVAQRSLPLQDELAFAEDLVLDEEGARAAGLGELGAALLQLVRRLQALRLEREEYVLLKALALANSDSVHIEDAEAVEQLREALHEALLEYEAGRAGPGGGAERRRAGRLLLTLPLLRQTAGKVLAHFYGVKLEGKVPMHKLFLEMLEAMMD
From the text: Full Length ERRα Reporter Gene Assay
A method was established to quantitatively screen the potency of compounds with inverse agonistic activity on the nuclear receptor ERRα of the human species. The assay allows intra-cellular screening of ERRα inverse agonists in SK-BR-3 cells using an over-expression construct coding full length ERRα and a reporter construct containing an ERRα Response Element (RE) and a luciferase gene for read out. The activity is expressed in log IC50 values and can be used to determine SAR of compound families or to de-select compounds.
In this assay, reporter cells are obtained by transient co-transfection of two constructs in SK-BR-3 cells using standard transfection techniques. The first construct contains a response element of the nuclear receptor ERRα (Plasmid pLP2175, Reporter construct ERRα-RE/luc2P, cloned variant of ERRα_v2_synthRE, Switchgear Genomics, Catalog Number S900089). This sequence drives the transcription of the luciferase reporter gene in response to binding of an ERRα protein encoded by the second construct (Plasmid pLP2124: full length ERRα expression construct using pcDNA3.1/Hygro(+) as background, Invitrogen Catalog Number V87020).
The day after transfection, cells were plated into 96 well plates, test compound was added and the plates were incubated overnight. Subsequently, the firefly luciferase activity was quantified using luciferase detection reagent and luminescence readout.
Detailed Assay Description
Transfection is performed on pre-seeded SK-BR-3 cells in a T175 flask. One transfected T175 flask is sufficient for seeding 3 to 4 MW96 plates the next day, depending on the confluency of the transfected cells.
Two different media are used in this protocol for cell treatment: 1) Culture medium, i.e. McCoy's 5a with phenol red (BioWhittaker Supplier Number 12-688F), 10% FBS and 1× Penstrep.; and, 2) Assay medium, i.e. McCoy's 5a Medium phenol red free (HyClone Product Code SH30270.01) with 2% Charcoal Stripped FBS and 1× Penstrep. Compound dilutions are prepared in assay medium.
Cells are seeded at least 2 days in advance to allow the cells to adhere well to flask before transfection. Cells should be 50-80% confluent at the day of transfection.
SKBR3 cells were transfected with the transcriptional reporter construct pLP2175 and the ERRα expression construct pLP2124 (as described above).
68 μL of Lipofectamine LTX transfection reagent (Invitrogen Catalog Number 15338-100) was added dropwise to 8.9 ml Opti-MEM I Reduced Serum Medium (Gibco Catalog Number 51985-026) and incubated at room temperature for 5 to 20 minutes. 8.9 ml of this reagent mixture was added to 22 μg pLP2175+22 μg pLP2124 (ratio 1:1 and total volume 10 ml), and incubated at room temperature for 25 minutes.
10 minutes before adding the transfection mix to SKBR3 cells in a T175 flask, the culture medium was refreshed with 20 mL culture medium. Subsequently, the 10 mL DNA-Opti-MEM-Lipofectamine mixture was gently added to the cells, followed by overnight (16-24 hours) incubation at 37° C. and 5% CO2.
To harvest SKBR3 cells from a T175 flask, first the medium was removed. Subsequently, cells were washed with Phosphate Buffered Saline (PBS) (Lonza), after which the PBS was removed. To dissociate the cells, 2 ml of TrypLE Express (Invitrogen) was added to the flask, followed by incubation at 37° C. for 5 minutes. The flask was tapped until cells were detached from the bottom. Cells were collected in 8 mL of culture medium (McCoy's 5α, 10% FBS, penstrep), to achieve a single cell suspension. After cell count, cells were spun down for 5 minutes at 300 g. Next cell pellets were re-suspended to 25000 cells/80 μl assay medium (McCoy's 5a phenol red free, 2% charcoal stripped FBS, penstrep).
For compound screening, the cells were harvested (as described above). 80 μL of cell suspension (25,000 cells) was plated per well into a white, flat bottom, tissue culture treated, 96 well screening plates (Greiner). […]

ERRα ligand binding domain (ERRα-LBD), sequence (P11474 193-421): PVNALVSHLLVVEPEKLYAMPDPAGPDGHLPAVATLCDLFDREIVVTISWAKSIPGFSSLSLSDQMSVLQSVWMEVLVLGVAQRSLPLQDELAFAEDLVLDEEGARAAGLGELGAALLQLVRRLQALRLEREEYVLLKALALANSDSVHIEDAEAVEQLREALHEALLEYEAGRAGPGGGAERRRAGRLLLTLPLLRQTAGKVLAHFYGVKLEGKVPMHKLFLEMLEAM

IC50 [1] [nM]	IC50 [2] [nM]	mean pIC50 [1]	SMILES
≤ 10	≤ 316		COc1cc(C2CC(=O)Nc3n[nH]cc32)ccc1COc1ccc(Br)cc1C(F)(F)F (stereo not drawn) [Example 96, 4-(4-{[4-bromo-2-(trifluoromethyl)phenoxy]methyl}-3-methoxyphenyl)-2H,4H,5H,6H, 7H-pyrazolo[3,4-b]pyridin-6-one]
	≤ 316	≥ 8	COc1cc(C2CC(=S)Nc3n[nH]cc32)ccc1OCc1ccccc1C(F)(F)F (stereo not drawn) [Example 166, 4-(3-methoxy-4-{[2-(trifluoromethyl)phenyl]methoxy}phenyl)-2H,4H,5H,6H,7H-pyrazolo[3,4-b]pyridine-6-thione]
	≤ 316	≥ 8	COc1cc(C2CC(=O)Nc3n[nH]cc32)ccc1COc1ccc(C(F)F)cc1C(F)(F)F (stereo not drawn) [Example 115, 4-(4-{[4-(difluoromethyl)-2-(trifluoromethyl)phenoxy]methyl}-3-methoxyphenyl)-2H,4H,5H,6H,7H-pyrazolo[3,4-b]pyridin-6-one]
10 to 100	≤ 316		COc1cc(C2CC(=O)Nc3n[nH]nc32)ccc1OCc1ccc(C(C)=O)cc1C(F)(F)F (stereo not drawn) [Example 93, 7-(4-{[4-acetyl-2-(trifluoromethyl)phenyl]methoxy}-3-methoxyphenyl)-2H,4H,5H,6H,7H-[1,2,3]triazolo[4,5-b]pyridin-5-one]
	≤ 316	≥ 8	COc1cc(-c2cc(=O)[nH]c3n[nH]cc23)ccc1OCc1ccc(F)cc1C(F)(F)F [Example 179, 4-(4-{[4-fluoro-2-(trifluoromethyl)phenyl]methoxy}-3-methoxyphenyl)-2H,6H, 7H-pyrazolo[3,4-b]pyridin-6-one]
	≤ 316	≥ 8	COc1cc(C2CC(=O)Nc3n[nH]cc32)ccc1COc1ccc(C#CCO)cc1C(F)(F)F (stereo not drawn) [Example 119, 4-(4-{[4-(3-hydroxyprop-1-yn-1-yl)-2-(trifluoromethyl)phenoxy]methyl}-3-methoxyphenyl)-2H,4H,5H,6H,7H-pyrazolo[3,4-b]pyridin-6-one]
	≤ 316	≥ 8	COc1cc(C2CC(=O)Nc3n[nH]cc32)ccc1OCc1ccc(C2CC2)cc1C(F)(F)F (stereo not drawn) [Example 145, 4-(4-{[4-cyclopropyl-2-(trifluoromethyl)phenyl]methoxy}-3-methoxyphenyl)-2H,4H,5H,6H, 7H-pyrazolo[3,4-b]pyridin-6-one]
	≤ 316	≥ 8	COc1cc(C2CC(=O)Nc3n[nH]cc32)ccc1OCc1ccccc1C(F)(F)F (stereo not drawn) [Example 1, 4-(3-methoxy-4-{[2-(trifluoromethyl)phenyl]methoxy}phenyl)-2H,4H,5H,6H, 7H-pyrazolo[3,4-b]pyridin-6-one]
	≤ 316	≥ 8	COc1cc(-c2cc(=O)[nH]c3n[nH]cc23)ccc1OCc1cccc(OC)c1C(F)(F)F [Example 177, 4-(3-methoxy-4-{[3-methoxy-2-(trifluoromethyl)phenyl]methoxy}phenyl)-2H, 6H, 7H-pyrazolo[3,4-b]pyridin-6-one]
	≤ 316	≥ 8	COc1cc(-c2cc(=O)[nH]c3n[nH]cc23)ccc1OCc1ccccc1C(F)(F)F [Example 169, 4-(3-methoxy-4-{[2-(trifluoromethyl)phenyl]methoxy}phenyl)-2H,6H,7H-pyrazolo[3,4-b]pyridin-6-one]
	≤ 316	≥ 8	COc1cc(C2CC(=O)Nc3n[nH]cc32)ccc1OCc1cccc(OC)c1C(F)(F)F (stereo not drawn) [Example 36, 4-(3-methoxy-4-{[3-methoxy-2-(trifluoromethyl)phenyl]methoxy}phenyl)-2H,4H,5H,6H,7H-pyrazolo[3,4-b]pyridin-6-one]
10 to 100	≤ 316		O=C1CC(c2ccc(COc3ccccc3S(F)(F)(F)(F)F)c(OC(F)(F)F)c2)c2c[nH]nc2N1 (stereo not drawn) [Example 107, 4-(4-{[2-(pentafluoro-λ^6-sulfanyl)phenoxy]methyl}-3-(trifluoromethoxy)phenyl)-2H,4H,5H,6H, 7H-pyrazolo[3,4-b]pyridin-6-one]
	≤ 316	≥ 8	CCc1ccc(COc2ccc(-c3cc(=O)[nH]c4n[nH]cc34)cc2OC)c(C(F)(F)F)c1 [Example 175, 4-(4-{[4-ethyl-2-(trifluoromethyl)phenyl]methoxy}-3-methoxyphenyl)-2H,6H, 7H-pyrazolo[3,4-b]pyridin-6-one]
10 to 100	≤ 316		O=C1CC(c2ccc(COc3ccc(Br)cc3C(F)(F)F)c(OC(F)(F)F)c2)c2c[nH]nc2N1 (stereo not drawn) [Example 106, 4-(4-{[4-bromo-2-(trifluoromethyl)phenoxy]methyl}-3-(trifluoromethoxy)phenyl)-2H,4H,5H,6H,7H-pyrazolo[3,4-b]pyridin-6-one]
	≤ 316	≥ 8	COc1cc(C2CC(=O)Nc3n[nH]cc32)ccc1OCc1ccc(C#CCO)cc1C(F)(F)F (stereo not drawn) [Example 146, 4-(4-{[4-(3-hydroxyprop-1-yn-1-yl)-2-(trifluoromethyl)phenyl]methoxy}-3-methoxyphenyl)-2H,4H,5H,6H, 7H-pyrazolo[3,4-b]pyridin-6-one]
	≤ 316	≥ 8	CCOc1cc(C2CC(=O)Nc3n[nH]cc32)ccc1OCc1ccccc1C(F)(F)F (stereo not drawn) [Example 62, 4-(3-ethoxy-4-{[2-(trifluoromethyl)phenyl]methoxy}phenyl)-2H,4H,5H,6H, 7H-pyrazolo[3,4-b]pyridin-6-one]
	≤ 316	≥ 8	COc1cc(C2CC(=O)Nc3n[nH]nc32)ccc1OCc1ccc(CCO)cc1C(F)(F)F (stereo not drawn) [Example 157, 7-(4-{[4-(2-hydroxyethyl)-2-(trifluoromethyl)phenyl]methoxy}-3-methoxyphenyl)-2H,4H,5H,6H, 7H-[1,2,3]triazolo[4,5-b]pyridin-5-one]
100 to 1000	≤ 316		COc1cc(C2CC(=O)Nc3n[nH]cc32)ccc1OCc1ccc(CCN)cc1C(F)(F)F (stereo not drawn) [Example 150, 4-(4-{[4-(2-aminoethyl)-2-(trifluoromethyl)phenyl]methoxy}-3-methoxyphenyl)-2H,4H,5H,6H, 7H-pyrazolo[3,4-b]pyridin-6-one]
	≤ 316	≥ 8	COc1cc(C2CC(=O)Nc3[nH]cnc32)ccc1OCc1ccccc1C(F)(F)F (stereo not drawn) [Example 89, 7-(3-methoxy-4-{[2-(trifluoromethyl)phenyl]methoxy}phenyl)-3H,4H,5H,6H, 7H-imidazo[4,5-b]pyridin-5-one]
100 to 1000	≤ 316		COc1cc(C2CC(=O)Nc3n[nH]cc32)ccc1OCc1ccc(NC(=O)CN)cc1C(F)(F)F (stereo not drawn) [Example 140, 2-amino-N-{4-[(2-methoxy-4-{6-oxo-2H,4H,5H,6H, 7H-pyrazolo[3,4-b]pyridin-4-yl}phenoxy)methyl]-3-(trifluoromethyl)phenyl}acetamide]
	≤ 316	≥ 8	COc1cc(-c2cc(=O)[nH]c3n[nH]cc23)ccc1OCc1ccc(C(C)=O)cc1C(F)(F)F [Example 174, 4-(4-{[4-acetyl-2-(trifluoromethyl)phenyl]methoxy}-3-methoxyphenyl)-2H,6H, 7H-pyrazolo[3,4-b]pyridin-6-one]
